Test results taken from patent US20260014194A1, “COMBINATIONS COMPRISING METAP2 INHIBITORS FOR THE TREATMENT OF CANCER” (SynDevRx, Inc., priority 2022, published 2026).

How the values were obtained:
[1] = Body weight in MCF-7 tumor-bearing mice; format: in vivo, NU/j mice; details: FIG. 34; compared to vehicle group; Compound 1 8 mg/kg, inavolisib 25 mg/kg
Protocol: (§1) Animals: Female NU/j mice, 6 weeks of age upon delivery, were received and acclimated at 5 mice per cage for a minimum of 7 days. Mice were housed in autoclaved caging with autoclaved water throughout the course of the study. The animals had free access to food (irradiated chow 2920X) and water. The animals were housed in a temperature and humidity-controlled room with a 12-hour light cycle.
Inavolisib was administered orally (PO) once per day (QD) at an amount of 25 mg/kg for the duration of the study.

MCF-7 cells = experiment: MCF-7 mammary fat pad tumor model: tumor volume and tumor growth inhibition; format: in vivo, NU/j mice; details: inavolisib 25 mg/kg PO QD
Protocol: as §1
Cell Culture: MCF-7 cells were cultured in Dulbecco's Modified Eagle Medium (DMEM) with 10% FBS.
Tumor Cell Implantation: On the day of implantation, cells were washed 1× with phosphate-buffered saline (PBS). Following washing, cells were pelleted (5 min @1000 rpm, RT) and then counted with a hemocytometer. A cell concentration of 5×10^6 per mouse was re-suspended in an appropriate amount of PBS and 1:1 Matrigel (kept on ice until implantation). Forty-eight hours prior to cell implantation, a 17-β estradiol pellet (0.36 mg 60-day slow release pellet) was implanted subcutaneously between the scapulae of each mouse. […]
Tumor Assessment: prior to cell implantation, all animals were ear tagged. Beginning 5 days post cell implantation, tumors were measured two times weekly (length×width) using a wireless Mitutoyo UWAVE-T digital calipers in conjunction with UWAVE-R to record measurements. […] Randomization was determined by tumor volume of all of the mice. […]

## C[C@H](Nc1ccc2c(c1)OCCn1cc(N3C(=O)OC[C@H]3C(F)F)nc1-2)C(N)=O [Inavolisib, inavolisib]
[1]
  Weight loss (body weight change over the study): increased as compared to the vehicle group
MCF-7 cells; Day 25, Compound 1 8 mg/kg SC Q4D
  Tumor Growth Inhibition: 74%
MCF-7 cells; starting tumor volume 59 mm^3, Compound 1 8 mg/kg SC Q4D, vehicle 469 mm^3
  Tumor Volume on Day 25: 167 mm^3
